The values below come from US20040242671A1, “Use of 2-oxo-1-pyrrolidine derivatives for the preparation of a drug” (priority 2001, published 2004).

The conditions of data set [1]: A. J. GOWER et al., Eur. J. Pharmacol., 222, (1992), 193-203; cited from earlier work.
The subject of data set [2] is MPTP-lesioned marmoset model of Parkinson's disease. The experiment in a line: Parkinsonian disability score with L-DOPA, MPTP-lesioned marmoset (Example 2). The conditions noted are these: for Disability scores: compound A 1, 3, 10 and 30 mg/kg + L-DOPA, p>0.05. Format: in vivo, marmosets (Callithrix jacchus). The protocol:
(§1) This study was designed to investigate whether the compound ((2S)-2-[(4S)-4-(2,2-difluorovinyl)-2-oxopyrrolidinyl]butanamide) (named compound A) has anti-dyskinetic activity in the 1-methyl-4-phenyl-1,2,3,6-tetrahydropyridine (MPTP)—lesioned marmoset model of Parkinson's disease. The effect of the compound A on L-3,4-dihydroxyphenylalanine (L-DOPA)-induced dyskinesias and alleviation of anti parkinsonism symptoms was investigated.
(§2) The study was performed on nine adult marmosets (Callithrix jacchus) bred in a closed colony. The marmosets were rendered parkinsonian by subcutaneous injection of 2 mg/kg MPTP for 5 consecutive days. The marmosets were allowed to recover for 18 weeks until their parkinsonism became stable. The degree of activity and disability before and after MPTP treatment was assessed using a combination of scales that measure locomotor activity, mobility, bradykinesia and posture. Animals were treated with L-DOPA (13.9+/−0.8 mg/kg b.i.d. for 6 weeks) to prime them to elicit dyskinesia.
(§3) All drugs were administered orally in a volume of 5 ml/kg via a syringe in the animal's home cage. The animals were immediately transferred to the experimental cage (60 cm×55 cm×75 cm, with the perch 25 cm from floor of cage) for behavioural assessment. Vehicle was apple juice in all cases.
(§4) 2) Parkinsonian disability—non-parametric measures based on the following scales
(§5) a) Range of movement score: 0=no movement, 1=movement of head on the floor of the cage, 2=movement of limbs, but no locomotion, on the floor of the cage, 3=movement of head or trunk on wall of cage or perch, 4=movement of limbs, but no locomotion, on wall of cage or perch, 5=walking around floor of cage or eating from hopper on floor, 6=hopping on floor of cage, 7=climbing onto wall of cage or perch, 8=climbing up and down the walls of the cage or along perch, 9=running, jumping, climbing between cage walls/perch/roof, uses limbs through a wide range of motion and activity.
(§6) b) Bradykinesia score: 0=normal speed and initiation of movement, 1=mild slowing of movement, 2=moderate slowing, difficulty initiating and maintaining movement, marked freezing, 3=akinetic, unable to move, with prolonged freezing episodes
(§7) c) Postural abnormality score: 0=normal, upright, holds head up, normal balance, 1=abnormal, crouched, face down, may lose balance. […]
(§8) Behaviour was assessed for 6 hours post drug administration. Behavioural test 1, activity, was assessed every 5 minutes for 6 hours post drug administration. Behavioural tests 2 and 3, parkinsonian disability and dyskinesia, respectively, were assessed for 10 minutes every 30 minutes over the course of 6 hours, by post hoc analysis of video-recordings by an observer blinded to the treatment. […]

Data set [3] has the same test system. Briefly: L-DOPA-induced dyskinesia score, MPTP-lesioned marmoset (Example 1). Format: in vivo, marmosets (Callithrix jacchus). Conditions: L-DOPA 12 mg/kg alone, oral. The protocol:
(§9) This study was designed to investigate whether levetiracetam has anti-dyskinetic activity in the 1-methyl-4-phenyl-1,2,3,6-tetrahydropyridine (MPTP)-lesioned marmoset model of Parkinson's disease. The effect of levetiracetam on L-3,4-dihydroxyphenylalanine (L-DOPA)-induced dyskinesias and alleviation of parkinsonism symptoms was investigated.
(§10) The study was performed on seven adult marmosets (Callithrix jacchus) bred in a closed colony. The marmosets were rendered parkinsonian by subcutaneous injection of 2 mg/kg MPTP for 5 consecutive days. The marmosets were allowed to recover for 18 weeks until their parkinsonism became stable. The degree of activity and disability before and after MPTP treatment was assessed using a combination of scales that measure locomotor activity, mobility, bradykinesia and posture. Animals were treated with L-DOPA (12.5 mg/kg b.i.d. for 6 weeks) to prime them to elicit dyskinesia.
as §3
3)Dyskinesia—non-parametric measures based on the following scale Dyskinesia score: 0=Absent, 1=Mild, fleeting, 2=Moderate, not interfering with normal activity, 3=Marked, at times interfering with normal activity, 4=Severe, continuous, replacing normal activity.
(§11) Behaviour was assessed for 6 hours post drug administration. Behavioural test 1, activity, was assessed every 5 minutes for 6 hours post drug administration. Behavioural tests 2 and 3, parkinsonian disability and dyskinesia, respectively, were assessed for 10 minutes every 30 minutes over the course of 6 hours, by post hoc analysis of video-recordings by an observer blinded to the treatment. The score given in each 10 minutes time period represents the maximum score achieved during that time period.
Table 1 outlines the randomised treatment schedule i.e. three doses of levetiracetam drug in combination with a single dose of L-DOPA. The actions of each of these three combination therapies were compared with that of L-DOPA plus the appropriate vehicle. Thus, a total of four treatments were given.

For data set [4] the test system is unchanged. The experiment in a line: L-DOPA-induced dyskinesia score, MPTP-lesioned marmoset (Example 2). Conditions: for Dyskinesia: first hour post drug administration, vs L-DOPA + vehicle, p<0.05. Format: in vivo, marmosets (Callithrix jacchus). The protocol:
as §1, §2, §3
3)Dyskinesia—non-parametric measures based on the following scale
Dyskinesia score: 0=Absent, 1=Mild, fleeting, 2=Moderate, not interfering with normal activity, 3=Marked, at times interfering with normal activity, 4=Severe, continuous, replacing normal activity.
as §11
Four doses of compound A drug (1 mg/kg, 3 mg/kg, 10 mg/kg and 30 mg/kg) in combination with a single dose of L-DOPA were tested using a randomized treatment schedule. The actions of each of these four combination therapies were compared with that of L-DOPA plus the appropriate vehicle. Thus, a total of five treatments were given.

Data set [5] has the same test system. The experiment in a line: Parkinsonian disability score with L-DOPA, MPTP-lesioned marmoset (Example 1). Format: in vivo, marmosets (Callithrix jacchus). The conditions noted are these: L-DOPA 12 mg/kg alone, oral. As to the method: as §9, §10, §3, §4, §5, §6, §7, §8
[6] abbreviates: L-DOPA alone (13.9+/−0.8 mg/kg), oral.

Regarding `CC[C@H](C(N)=O)N1CCCC1=O` [(R)-(+)-α-ethyl-2-oxo-1-pyrrolidine-acetamide], the “Activity in the treatment of epilepsy” value in data set [1] is listed as “completely devoid of activity”.
For the molecule `N[C@@H](Cc1ccc(O)c(O)c1)C(=O)O` [L-DOPA, L-3,4-dihydroxyphenylalanine], the “Effect on parkinsonian symptoms” value in data set [2] (setting [6]) and in data set [5] was “reversed parkinsonian symptoms” in each case. Further, the “Dyskinesia accompanying alleviation of parkinsonian symptoms” value in data set [3] was “severe dyskinesia”; in data set [4] (setting [6]) it was “accompanied by dyskinesia”.
Consider `CC[C@@H](C(N)=O)N1C[C@H](C=C(F)F)CC1=O` [compound A, (2S)-2-[(4S)-4-(2,2-difluorovinyl)-2-oxopyrrolidinyl]butanamide], for which the Disability scores entry in data set [2] (any time-point after one hour post drug administration) and in data set [2] (first hour post drug administration) was “no significant differences” in each case. Besides, in data set [2] (compound A 1 to 30 mg/kg + L-DOPA 13.9+/−0.8 mg/kg), the “Reversal of parkinsonian symptoms at peak effect, compared with L-DOPA monotherapy” value is on record as “same magnitude”. The Dyskinesia entry in data set [4] (compound A 10 mg/kg + L-DOPA 13.9+/−0.8 mg/kg oral) and in data set [4] (compound A 30 mg/kg + L-DOPA 13.9+/−0.8 mg/kg oral) was “significantly reduced” throughout. Besides, in data set [4] (compound A 1, 3, 10 and 30 mg/kg + L-DOPA, any time-point after one hour post drug administration, p>0.05), the Dyskinesia scores entry is recorded as “no significant differences”.
